Common to all, as to assay type: cell-based
Data set [1] in a line: Anti-proliferation IC50, MRC-5. To be noted: human, MRC-5 cells; Table 1, compounds of formula I; NI = no inhibition up to 500 μM.
The subject of the next data set is A549. The data set can be described thus: Anti-proliferation IC50, A549. To be noted: Homo sapiens.
A further data set relates to Hep-G2. The data set can be described thus: Anti-proliferation IC50, Hep-G2. To be noted: Homo sapiens, HepG2.
For another data set, the system named is VERO. Description: Anti-proliferation IC50, VERO. The settings on record: Chlorocebus sabaeus.
The next data set relates to MDA-MB-231. Description: Anti-proliferation IC50, MDA-MB-231. To be noted: Homo sapiens.
Another data set has as its system MCF-7. The data set can be described thus: Anti-proliferation IC50, MCF-7. To be noted: Homo sapiens, MCF7.
In another data set the test system is MRC-5. Description: Anti-proliferation IC50, MRC-5. The settings on record: Homo sapiens, MRC5; Table 2, compounds of formula II.
Setting [2] is: Table 1, compounds of formula I, NI = no inhibition up to 500 μM, read-out: A549 (IC50).
[3] abbreviates: Table 1, compounds of formula I, NI = no inhibition up to 500 μM, read-out: Hep-G2 (IC50).
Where [4] appears, read: Table 1, compounds of formula I, NI = no inhibition up to 500 μM, read-out: VERO (IC50).
Where [5] appears, read: Table 1, compounds of formula I, NI = no inhibition up to 500 μM, read-out: MDA-MB-231 (IC50).
Setting [6] is: Table 1, compounds of formula I, NI = no inhibition up to 500 μM, read-out: MCF-7 (IC50).
Setting [7] is: Table 2, compounds of formula II, read-out: Anti-proliferation IC50 A549.
[8] abbreviates: Table 2, compounds of formula II, read-out: Anti-proliferation IC50 Hep-G2.
Where [9] appears, read: Table 2, compounds of formula II, read-out: Anti-proliferation IC50 VERO.
Setting [10] is: Table 2, compounds of formula II, read-out: Anti-proliferation IC50 MDA-MB-231.
The mark [11] stands for this setting: Table 2, compounds of formula II, read-out: Anti-proliferation IC50 MCF-7.

Counter-ions that a name gives are not always drawn. Like-named read-outs stand apart in the source and are kept apart here. A value given as a limit tells only on which side of the number the result lay.

Turning to `CC[C@H]1OC(=O)[C@@H](C)[C@@H](O[C@H]2C[C@@](C)(OC)[C@@H](O)[C@H](C)O2)[C@@H](C)[C@@H](O[C@H]2O[C@@H](C)C[C@@H](N(C)Cc3ccc(-c4cn(CCNC(=O)CCCC[C@H]5CCSS5)nn4)cc3)[C@@H]2O)[C@](C)(OC)C[C@@H](C)C(=O)[C@H](C)[C@H](O)[C@]1(C)O`, the IC50 in data set [1] stood at 56.1 ± 1.2 µM; in the data set on A549 (setting [2]), 58.6 ± 0.6 µM; with Hep-G2 (setting [3]), 57.3 ± 1.2 µM; in the data set on VERO (setting [4]), 65 ± 12.2 µM; in the data set on MDA-MB-231 (setting [5]), 56.9 ± 1.3 µM; in the data set on MCF-7 (setting [6]) it was 42.3 ± 4.4 µM.
Consider `CC[C@H]1OC(=O)[C@@H](C)[C@@H](O[C@H]2C[C@@](C)(OC)[C@@H](O)[C@H](C)O2)[C@@H](C)[C@@H](O[C@H]2O[C@@H](C)C[C@@H](N(C)Cc3ccc(-c4cn(CCCNC(=O)CCCC[C@H]5CCSS5)nn4)cc3)[C@@H]2O)[C@](C)(OC)C[C@@H](C)C(=O)[C@H](C)[C@H](O)[C@]1(C)O`, for which the IC50 in data set [1] is 51.6 ± 5 µM; with A549 (setting [2]), 56.9 ± 0.8 µM; with Hep-G2 (setting [3]), 49.2 ± 1.8 µM; in the data set with VERO (setting [4]), 58.1 ± 2.7 µM; in the data set with MDA-MB-231 (setting [5]), 58.5 ± 3.2 µM; in the data set with MCF-7 (setting [6]), 53.6 ± 0.2 µM.
Consider `CC[C@H]1OC(=O)[C@@H](C)[C@@H](O[C@H]2C[C@@](C)(OC)[C@@H](O)[C@H](C)O2)[C@@H](C)[C@@H](O[C@H]2O[C@@H](C)C[C@@H](N(C)C)[C@@H]2OC(=O)/C=C/C(=O)OC)[C@](C)(OC)C[C@@H](C)C(=O)[C@H](C)[C@H](O)[C@]1(C)O`, for which the IC50 in data set [1] was 88.4 µM; in the data set on A549 (setting [2]), 278 µM; in the data set with Hep-G2 (setting [3]), 133 µM; in the data set with VERO (setting [4]), 219 ± 45.8 µM; in the data set on MDA-MB-231 (setting [5]) it was 140 µM; with MCF-7 (setting [6]) it was 128 ± 16.5 µM.
For the molecule `CCCCOC(=O)/C=C/C(=O)N(C)[C@@H]1C[C@H](C)O[C@H](O[C@@H]2[C@H](C)[C@H](O[C@H]3C[C@@](C)(OC)[C@@H](O)[C@H](C)O3)[C@H](C)C(=O)O[C@H](CC)[C@@](C)(O)[C@@H](O)[C@@H](C)C(=O)[C@H](C)C[C@@]2(C)OC)[C@H]1O`, the IC50 in data set [1] is 44.9 ± 0.6 µM; in the data set with A549 (setting [2]) it was more than 500 µM; in the data set on Hep-G2 (setting [3]) it was 209 ± 11.2 µM; with VERO (setting [4]) it was 68.3 ± 16.8 µM; in the data set with MDA-MB-231 (setting [5]), 28.4 ± 3.9 µM; with MCF-7 (setting [6]), 72.3 ± 5.2 µM.
As for `CC[C@@H]1OC(=O)[C@@H](C)[C@H](O[C@H]2C[C@@](C)(OC)[C@@H](O)[C@H](C)O2)[C@@H](C)[C@H](O[C@@H]2O[C@H](C)C[C@H](N(C)C)[C@H]2OC(=O)CCCC[C@H]2CCSS2)C(C)(O)C[C@H](C)CN(C)[C@@H](C)[C@H](O)[C@@]1(C)O` (stereo partly drawn), the IC50 turned out to be 13.4 ± 0.4 µM in the data set on MRC-5; 23 ± 0.5 µM in the data set on A549 (setting [7]); 29.5 ± 4.4 µM with Hep-G2 (setting [8]); 54.5 ± 0.8 µM with VERO (setting [9]); 45 ± 1.3 µM in the data set on MDA-MB-231 (setting [10]); 38.2 ± 0.8 µM in the data set on MCF-7 (setting [11]).
On to `CC[C@H]1OC(=O)[C@H](C)[C@@H](O[C@H]2C[C@@](C)(OC)[C@@H](O)[C@H](C)O2)[C@H](C)[C@@H](O[C@@H]2O[C@H](C)C[C@H](N(C)C(=O)CCCC[C@H]3CCSS3)[C@H]2O)[C@](C)(O)C[C@@H](C)CN(C)[C@H](C)[C@@H](O)[C@]1(C)O`, for which the IC50 with MRC-5 was found to be 20.2 ± 3.7 µM; with A549 (setting [7]) it was 18.8 ± 4.1 µM; with Hep-G2 (setting [8]) it was 13.6 ± 0.1 µM; in the data set with VERO (setting [9]) it was 24.4 ± 2.4 µM; in the data set with MDA-MB-231 (setting [10]), 11.9 ± 1.7 µM; with MCF-7 (setting [11]) it was 11.2 µM.
For `CC[C@@H]1OC(=O)[C@@H](C)[C@H](O[C@H]2C[C@@](C)(OC)[C@@H](O)[C@H](C)O2)[C@@H](C)[C@H](O[C@H]2O[C@@H](C)C[C@@H](N(C)Cc3ccc(-c4cn(CCNC(=O)CCCC[C@H]5CCSS5)nn4)cc3)[C@@H]2O)C(C)(O)C[C@H](C)CN(C)[C@@H](C)[C@H](O)[C@@]1(C)O` (stereo partly drawn), the IC50 in the data set on MRC-5 stood at 6.1 µM; in the data set with A549 (setting [7]), 10.3 ± 0.9 µM; with Hep-G2 (setting [8]), 8.5 ± 1.1 µM; in the data set with VERO (setting [9]), 16.9 ± 0.4 µM; with MDA-MB-231 (setting [10]), 11.8 ± 0.1 µM; in the data set with MCF-7 (setting [11]), 11.7 ± 0.4 µM.
On to `CC[C@@H]1OC(=O)[C@@H](C)[C@H](OC2C[C@@](C)(OC)[C@@H](O)[C@H](C)O2)[C@@H](C)[C@H](O[C@H]2O[C@@H](C)C[C@@H](N(C)Cc3ccc(-c4cn(CCCNC(=O)CCCC[C@H]5CCSS5)nn4)cc3)[C@@H]2O)C(C)(O)C[C@H](C)CN(C)[C@@H](C)[C@H](O)[C@@]1(C)O` (stereo partly drawn), for which the IC50 came out at 24.5 ± 2.6 µM with MRC-5; 26.9 µM with A549 (setting [7]); 14.4 ± 0.6 µM in the data set with Hep-G2 (setting [8]); 40.3 ± 4.9 µM with VERO (setting [9]); 21.3 ± 1.5 µM with MDA-MB-231 (setting [10]); 26.8 ± 7.1 µM in the data set on MCF-7 (setting [11]).
Consider `CC[C@@H]1OC(=O)[C@@H](C)[C@H](O[C@H]2C[C@@](C)(OC)[C@@H](O)[C@H](C)O2)[C@@H](C)[C@H](O[C@H]2O[C@@H](C)C[C@@H](N(C)C)[C@@H]2OC(=O)/C=C/C(=O)OC)C(C)(O)C[C@H](C)CN(C)[C@@H](C)[C@H](O)[C@@]1(C)O` (stereo partly drawn), for which the IC50 in the data set with MRC-5 is 68.3 µM; in the data set on A549 (setting [7]), 284 µM; in the data set on Hep-G2 (setting [8]), 118 µM; in the data set with VERO (setting [9]), 238 ± 29.1 µM; with MDA-MB-231 (setting [10]) it was 118 µM; in the data set with MCF-7 (setting [11]), 278 µM.
On to `CCCCOC(=O)/C=C/C(=O)O[C@@H]1[C@@H](O[C@H]2[C@H](C)[C@@H](O[C@H]3C[C@@](C)(OC)[C@@H](O)[C@H](C)O3)[C@H](C)C(=O)O[C@@H](CC)[C@](C)(O)[C@@H](O)[C@H](C)N(C)C[C@@H](C)CC2(C)O)O[C@@H](C)C[C@H]1N(C)C` (stereo partly drawn), for which the IC50 in the data set on MRC-5 was found to be 43.6 ± 8.5 µM; in the data set with A549 (setting [7]), 141 ± 4.3 µM; in the data set with Hep-G2 (setting [8]) it was 63.6 ± 7.7 µM; in the data set on VERO (setting [9]), 126 ± 2.4 µM; in the data set with MDA-MB-231 (setting [10]) it was 29.6 ± 3 µM; in the data set on MCF-7 (setting [11]), 50 ± 1.5 µM.
`CCCCOC(=O)/C=C/C(=O)N(C)[C@@H]1C[C@H](C)O[C@H](O[C@H]2[C@H](C)[C@@H](O[C@H]3C[C@@](C)(OC)[C@@H](O)[C@H](C)O3)[C@H](C)C(=O)O[C@@H](CC)[C@](C)(O)[C@@H](O)[C@H](C)N(C)C[C@@H](C)CC2(C)O)[C@H]1O` (stereo partly drawn): the IC50 is 78.9 ± 2.6 µM with MRC-5; 111 ± 4.6 µM with A549 (setting [7]); 64.9 ± 2.4 µM in the data set with Hep-G2 (setting [8]); 97.2 ± 15.5 µM in the data set with VERO (setting [9]); 34.8 ± 2.8 µM with MDA-MB-231 (setting [10]); 39.3 ± 7.1 µM in the data set on MCF-7 (setting [11]).
With `COC(=O)/C=C/C(=O)OC` [Dimethyl Fumarate, reference compound], the IC50 is 259 µM in data set [1]; more than 500 µM in the data set on A549 (setting [2]); more than 500 µM in the data set on Hep-G2 (setting [3]); 844 µM with VERO (setting [4]); more than 500 µM in the data set on MDA-MB-231 (setting [5]); more than 500 µM in the data set with MCF-7 (setting [6]).
With `O=C(O)CCCCC1CCSS1` (stereo not drawn) [Lipoic acid (ALA), Lipoic acid, reference compound], the IC50 (in data set [1]; in the data set with A549 (setting [2]); in the data set on Hep-G2 (setting [3]); with VERO (setting [4]); with MDA-MB-231 (setting [5]); in the data set on MCF-7 (setting [6])) was more than 500 µM each time.

The values are drawn from patent US20240076293A1, “Compositions and Methods for Inhibiting Fibrosis, Inflammation and Cancer” (Georgia Tech Research Corporation, priority 2020, published 2024).
